Source: article PMC12279193 (Advanced Science, 2025)

Legend:
[1] = target: S-RBD protein; SARS-CoV-2 RBD (Severe acute respiratory syndrome coronavirus 2, UniProt P0DTC2); assay: 1H CPMG and STD NMR; DARTS; format: binding; conditions: 200 µM S416, 5 µM RBD, PBS in D2O, 5% DMSO-d6, 25 °C
HCoV-OC43 spike protein = target: T1, HCoV-OC43 spike protein (Human coronavirus OC43, UniProt P36334); format: binding
T1 construct: gene S
T1 sequence (P36334 14-1297): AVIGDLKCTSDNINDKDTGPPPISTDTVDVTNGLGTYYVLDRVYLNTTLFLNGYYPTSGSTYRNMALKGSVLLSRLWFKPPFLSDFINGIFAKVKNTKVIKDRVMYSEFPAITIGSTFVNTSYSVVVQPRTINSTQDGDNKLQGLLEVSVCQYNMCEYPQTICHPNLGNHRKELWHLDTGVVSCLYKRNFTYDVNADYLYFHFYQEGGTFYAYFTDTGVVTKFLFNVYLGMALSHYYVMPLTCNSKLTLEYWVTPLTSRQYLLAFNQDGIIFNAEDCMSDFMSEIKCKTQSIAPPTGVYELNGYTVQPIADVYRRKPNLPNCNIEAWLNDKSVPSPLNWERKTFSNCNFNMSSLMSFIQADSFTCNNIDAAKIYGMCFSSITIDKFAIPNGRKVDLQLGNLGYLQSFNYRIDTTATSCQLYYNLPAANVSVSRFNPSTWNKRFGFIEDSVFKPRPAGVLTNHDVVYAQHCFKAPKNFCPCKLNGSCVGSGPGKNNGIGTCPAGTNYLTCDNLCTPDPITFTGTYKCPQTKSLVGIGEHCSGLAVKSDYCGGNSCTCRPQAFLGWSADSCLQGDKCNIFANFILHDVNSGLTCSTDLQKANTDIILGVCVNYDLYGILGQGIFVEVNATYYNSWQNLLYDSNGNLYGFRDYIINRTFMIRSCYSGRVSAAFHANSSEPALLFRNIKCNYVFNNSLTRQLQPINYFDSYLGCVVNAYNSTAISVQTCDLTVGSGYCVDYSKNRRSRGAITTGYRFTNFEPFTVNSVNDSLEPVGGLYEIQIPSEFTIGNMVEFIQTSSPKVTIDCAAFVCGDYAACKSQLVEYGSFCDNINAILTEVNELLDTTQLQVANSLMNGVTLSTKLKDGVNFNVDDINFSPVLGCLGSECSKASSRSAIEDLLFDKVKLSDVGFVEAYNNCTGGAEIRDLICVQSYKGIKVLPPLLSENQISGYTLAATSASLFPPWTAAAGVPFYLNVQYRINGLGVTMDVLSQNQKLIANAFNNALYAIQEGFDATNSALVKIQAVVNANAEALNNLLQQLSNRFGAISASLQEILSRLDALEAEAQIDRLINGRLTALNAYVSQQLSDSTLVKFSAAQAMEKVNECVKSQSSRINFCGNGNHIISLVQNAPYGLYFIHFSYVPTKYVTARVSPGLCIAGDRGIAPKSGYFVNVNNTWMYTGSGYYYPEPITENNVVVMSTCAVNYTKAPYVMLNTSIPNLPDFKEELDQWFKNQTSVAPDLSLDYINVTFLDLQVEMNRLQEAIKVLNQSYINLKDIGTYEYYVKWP

Q: Which results are given for `CN(/N=C/c1ccccc1C(=O)O)c1nc(-c2ccccc2Cl)cs1` [S416]?
A: 1H CPMG and STD NMR; DARTS [1]: confirmed that S416 could indeed bind to RBD directly; Kd (HCoV-OC43 spike protein): 33.3 µM
